Two compounds from ChEMBL document CHEMBL1157463, “Interaction of methimazole with I2: X-ray crystal structure of the charge transfer complex methimazole-I2. implications for the mechanism of action of methimazole-based antithyroid drugs” (J Med Chem, 2008) can be followed below.

Structures are written as SMILES. pIC50: −log10 of the molar value.

What is called pIC50 is −log10 of the IC50, conventionally taken in molar units.

A short description of this assay: Antioxidant activity assessed as inhibition of lactoperoxidase-catalyzed oxidation of 2,2'-azinobis([…]). The assay is classed as functional.

As for `Cn1cc[nH][c+]1SS[c+]1[nH]ccn1C.[O-][Cl+3]([O-])([O-])[O-].[O-][Cl+3]([O-])([O-])[O-]`, the negative logarithm of the IC50 (pIC50) is 5.85.
The same measure for `Cn1ccnc1S` [METHIMAZOLE]: 5.25.
